Source: patent US12180207B2 (ARRAY BIOPHARMA INC., priority 2018, dated 2024)

Legend:
[1] = target: dephosphorylated FGFR1 (SEQ ID NO: 1, amino acids 458 to 765) (Homo sapiens (Human), UniProt P11362); assay: FGFR enzyme binding assay (HTRF tracer displacement), FGFR1; conditions: 5 nM dephosphorylated FGFR1, average of multiple determinations if made
Summary of the method: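 Compounds were tested for displacement of a tracer from human FGFR kinase in a time-resolved FRET binding format. After 60 minutes at 22° C, signal was read at two wavelengths and converted to percent of control, normalised between untreated wells and 1 μM reference inhibitor.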

[2] = target: recombinant human FGFR1 catalytic domain (amino acids 308-731) (Homo sapiens (Human), UniProt P11362); assay: FGFR1 enzyme activity assay (LanthaScreen TR-FRET); type: biochemical; conditions: 20 min incubation at 22° C., average of multiple determinations if made, read-out: FGFR1 Enz FRET IC50
Summary of the method: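 His-tagged FGFR1 kinase domain with 100 nM Alexa Fluor 647-poly-GT peptide and ATP in pH 7.5 HEPES/MgCl2 buffer with 2% DMSO, 20 min at 22 °C. Quenched with EDTA plus 2 nM Eu-PY20 antibody and read after 60 min. IC50 comes from a 4-parameter fit of percent of control.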

[3] = target: recombinant human FGFR2 cytoplasmic domain (amino acids 403-822) (Homo sapiens (Human), UniProt P21802); assay: FGFR2 enzyme activity assay (LanthaScreen TR-FRET); type: biochemical; conditions: 15 μM ATP, 20 min incubation at 22° C., average of multiple determinations if made, read-out: FGFR2 Enz FRET IC50
Summary of the method: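 His-tagged FGFR2 cytoplasmic domain ([…]) with 100 nM Alexa Fluor 647-poly-GT peptide and 15 μM ATP in HEPES/MgCl2/Triton buffer, pH 7.5, 2% DMSO, 20 min at 22 °C. EDTA-quenched, Eu-PY20 antibody added, TR-FRET read after 60 min.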

[4] = target: FGFR3 (SEQ ID NO: 5, amino acids 449-759) (Homo sapiens (Human), UniProt P22607); assay: LC/MS FGFR3 kobs assay (covalent protein modification); type: binding; conditions: 500 nM FGFR3, 3 μM compound
Summary of the method: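 Intact-mass LC/MS tracks covalent labeling of the kinase domain over time after acid quench (0.4% formic acid). Unmodified fraction, scaled to DMSO controls, is fitted as exponential decay; kobs is reported, averaged when measured more than once.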

Sequence of recombinant human FGFR2 cytoplasmic domain (amino acids 403-822) (P21802 402-821): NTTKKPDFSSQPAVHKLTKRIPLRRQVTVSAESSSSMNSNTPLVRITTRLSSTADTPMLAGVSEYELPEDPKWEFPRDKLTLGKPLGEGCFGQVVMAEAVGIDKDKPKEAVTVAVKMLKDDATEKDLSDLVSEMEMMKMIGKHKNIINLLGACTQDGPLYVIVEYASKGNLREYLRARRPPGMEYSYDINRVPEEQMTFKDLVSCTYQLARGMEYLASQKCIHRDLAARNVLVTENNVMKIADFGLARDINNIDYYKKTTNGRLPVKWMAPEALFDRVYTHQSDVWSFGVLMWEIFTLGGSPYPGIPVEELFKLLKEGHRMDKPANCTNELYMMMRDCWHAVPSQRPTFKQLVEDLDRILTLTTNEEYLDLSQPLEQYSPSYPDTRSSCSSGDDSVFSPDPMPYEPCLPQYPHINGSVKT
Sequence of dephosphorylated FGFR1 (SEQ ID NO: 1, amino acids 458 to 765) (P11362 458-765): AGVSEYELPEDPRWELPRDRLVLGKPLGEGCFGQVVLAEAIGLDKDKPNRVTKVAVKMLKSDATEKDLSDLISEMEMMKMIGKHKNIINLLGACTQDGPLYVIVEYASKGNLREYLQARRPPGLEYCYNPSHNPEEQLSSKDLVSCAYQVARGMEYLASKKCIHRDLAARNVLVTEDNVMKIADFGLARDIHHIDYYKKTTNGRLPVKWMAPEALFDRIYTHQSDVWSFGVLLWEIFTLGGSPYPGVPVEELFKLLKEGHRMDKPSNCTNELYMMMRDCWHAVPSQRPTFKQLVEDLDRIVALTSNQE
Sequence of FGFR3 (SEQ ID NO: 5, amino acids 449-759) (P22607 449-759): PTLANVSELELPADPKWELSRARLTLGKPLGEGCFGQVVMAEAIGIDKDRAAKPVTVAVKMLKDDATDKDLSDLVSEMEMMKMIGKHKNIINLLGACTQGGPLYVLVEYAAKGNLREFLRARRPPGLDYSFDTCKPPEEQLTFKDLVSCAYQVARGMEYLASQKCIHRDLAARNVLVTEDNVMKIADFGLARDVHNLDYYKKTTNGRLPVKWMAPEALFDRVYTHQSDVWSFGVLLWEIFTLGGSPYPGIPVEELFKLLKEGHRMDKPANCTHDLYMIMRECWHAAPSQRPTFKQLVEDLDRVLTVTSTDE
Sequence of recombinant human FGFR1 catalytic domain (amino acids 308-731) (P11362 other isoform, or with tags, fused parts or gaps): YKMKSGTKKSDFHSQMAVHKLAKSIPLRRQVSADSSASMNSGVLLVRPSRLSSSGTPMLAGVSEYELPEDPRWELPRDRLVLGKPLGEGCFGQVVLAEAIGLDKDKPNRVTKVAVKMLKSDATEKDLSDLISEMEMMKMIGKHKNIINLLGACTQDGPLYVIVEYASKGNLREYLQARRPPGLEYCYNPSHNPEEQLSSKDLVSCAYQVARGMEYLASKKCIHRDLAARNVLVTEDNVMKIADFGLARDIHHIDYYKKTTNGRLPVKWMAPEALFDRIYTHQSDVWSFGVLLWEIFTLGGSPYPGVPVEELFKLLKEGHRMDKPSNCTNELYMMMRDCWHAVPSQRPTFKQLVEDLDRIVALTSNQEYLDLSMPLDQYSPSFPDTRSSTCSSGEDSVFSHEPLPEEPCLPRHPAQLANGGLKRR

| IC50 [1] | IC50 [2] | IC50 [3] | FGFR3 Enz kobs [4] | Structure (SMILES) |
| --- | --- | --- | --- | --- |
| 245 nM | 10 nM | 2 nM | 0.00418 min⁻¹ | C=CC(=O)N1CCC(F)(C(=O)N2CCC(n3cc(-c4cc(OC)c5c(C#N)cnn5c4)cn3)CC2)CC1 [Example 13, 6-(1-(1-(1-acryloyl-4-fluoropiperidine-4-carbonyl)piperidin-4-yl)-1H-pyrazol-4-yl)-4-methoxypyrazolo[1,5-a]pyridine-3-carbonitrile] |
| 56 nM | 34 nM | 6 nM | 0.01566 min⁻¹ | C=CC(=O)N(C)c1ccc(CN2CCC(n3cc(-c4cc(OC)c5c(C#N)cnn5c4)cn3)CC2)cc1 [Example 10, N-(4-((4-(4-(3-cyano-4-methoxypyrazolo[1,5-a]pyridin-6-yl)-1H-pyrazol-1-yl)piperidin-1-yl)methyl)phenyl)-N-methylacrylamide] |
| 42 nM | 13 nM | 3 nM | 0.01185 min⁻¹ | C=CC(=O)N1CC(C(=O)N2CCC(c3ccc(-c4cc(OC)c5c(C#N)cnn5c4)cc3)CC2)C1 [Example 101, 6-(4-(1-(1-acryloylazetidine-3-carbonyl)piperidin-4-yl)phenyl)-4-methoxypyrazolo[1,5-a]pyridine-3-carbonitrile] |
| 71 nM | 14 nM | 13 nM | 0.013 min⁻¹ | C=CC(=O)N1CC(CN2CCC(n3cc(-c4cc(OC)c5c(C#N)cnn5c4)cn3)CC2)C1 [Example 132, 6-(1-(1-((1-acryloylazetidin-3-yl)methyl)piperidin-4-yl)-1H-pyrazol-4-yl)-4-methoxypyrazolo[1,5-a]pyridine-3-carbonitrile] |
| 157 nM | 10 nM | 4 nM | 0.00902 min⁻¹ | C=CC(=O)N1CC2(CCN(C(=O)N3CCC(n4cc(-c5cc(OC)c6c(C#N)cnn6c5)cn4)CC3)CC2)C1 [Example 6, 6-(1-(1-(2-acryloyl-2,7-diazaspiro[3.5]nonane-7-carbonyl)piperidin-4-yl)-1H-pyrazol-4-yl)-4-methoxypyrazolo[1,5-a]pyridine-3-carbonitrile] |
| 56 nM | 32 nM | 5 nM | 0.02298 min⁻¹ | C=CC(=O)Nc1ccc(CN2CCC(n3cc(-c4cc(OC)c5c(C#N)cnn5c4)cn3)CC2)cc1 [Example 9, N-(4-((4-(4-(3-cyano-4-methoxypyrazolo[1,5-a]pyridin-6-yl)-1H-pyrazol-1-yl)piperidin-1-yl)methyl)phenyl)acrylamide] |
| 221 nM | 40 nM | 13 nM | 0.01169 min⁻¹ | C=CC(=O)N1CC(C)(C(=O)N2CCC(n3cc(-c4cc(OC)c5c(Cl)cnn5c4)cn3)CC2)C1 [Example 123, 1-(3-(4-(4-(3-chloro-4-methoxypyrazolo[1,5-a]pyridin-6-yl)-1H-pyrazol-1-yl)piperidine-1-carbonyl)-3-methylazetidin-1-yl)prop-2-en-1-one] |
| 271 nM | 14 nM | 9 nM | 0.01646 min⁻¹ | C=CC(=O)N1CC(C(=O)N2CCC(n3cc(-c4cc(C(C)C)c5c(C#N)cnn5c4)cn3)CC2)C1 [Example 129, 6-(1-(1-(1-acryloylazetidine-3-carbonyl)piperidin-4-yl)-1H-pyrazol-4-yl)-4-isopropylpyrazolo[1,5-a]pyridine-3-carbonitrile] |
| 90 nM | 4 nM | 10 nM | 0.01233 min⁻¹ | COc1cc(-c2cnn(C3CCN(CC4CN(C(=O)/C=C/CN5CCCCC5)C4)CC3)c2)cn2ncc(C#N)c12 [Example 175, (E)-4-methoxy-6-(1-(1-((1-(4-(piperidin-1-yl)but-2-enoyl)azetidin-3-yl)methyl)piperidin-4-yl)-1H-pyrazol-4-yl)pyrazolo[1,5-a]pyridine-3-carbonitrile] |
| 147 nM | 13 nM | 6 nM | 0.01992 min⁻¹ | C=CC(=O)N1CC(C(=O)N2CCC(n3cc(-c4cc(OCC)c5c(C#N)cnn5c4)cn3)CC2)C1 [Example 126, 6-(1-(1-(1-acryloylazetidine-3-carbonyl)piperidin-4-yl)-1H-pyrazol-4-yl)-4-ethoxypyrazolo[1,5-a]pyridine-3-carbonitrile] |
| 7 nM | 9 nM | 10 nM | 0.01762 min⁻¹ | C=CC(=O)N1CC(C(=O)N2CCC(n3cc(-c4cc(-c5ccccc5F)c5c(C#N)cnn5c4)cn3)CC2)C1 [Example 131, 6-(1-(1-(1-acryloylazetidine-3-carbonyl)piperidin-4-yl)-1H-pyrazol-4-yl)-4-(2-fluorophenyl)pyrazolo[1,5-a]pyridine-3-carbonitrile] |
| 59 nM | 7 nM | 5 nM | 0.01654 min⁻¹ | C=CC(=O)N1CC(C(=O)N2CCC(n3cc(-c4cc(OC(C)C)c5c(C#N)cnn5c4)cn3)CC2)C1 [Example 127, 6-(1-(1-(1-acryloylazetidine-3-carbonyl)piperidin-4-yl)-1H-pyrazol-4-yl)-4-isopropoxypyrazolo[1,5-a]pyridine-3-carbonitrile] |
| 119 nM | 38 nM | 17 nM | 0.02484 min⁻¹ | C=CC(=O)N1CC(OC)(C(=O)N2CCC(n3cc(-c4cc(OC)c5c(Cl)cnn5c4)cn3)CC2)C1 [Example 124, 1-(3-(4-(4-(3-chloro-4-methoxypyrazolo[1,5-a]pyridin-6-yl)-1H-pyrazol-1-yl)piperidine-1-carbonyl)-3-methoxyazetidin-1-yl)prop-2-en-1-one] |
| 218 nM | 22 nM | 6 nM | 0.01995 min⁻¹ | C=CC(=O)N1CC(C(=O)N2CCC(n3cnc(-c4cc(OC)c5c(C#N)cnn5c4)c3)CC2)C1 [Example 98, 6-(1-(1-(1-acryloylazetidine-3-carbonyl)piperidin-4-yl)-1H-imidazol-4-yl)-4-methoxypyrazolo[1,5-a]pyridine-3-carbonitrile] |
| 572 nM | 117 nM | 38 nM | 0.01865 min⁻¹ | C=CC(=O)N1CC(C(=O)N2CCC(n3cc(-c4cc(OC)c5c(C#N)cnn5c4)c(CC)n3)CC2)C1 [Example 97, 6-(1-(1-(1-acryloylazetidine-3-carbonyl)piperidin-4-yl)-3-ethyl-1H-pyrazol-4-yl)-4-methoxypyrazolo[1,5-a]pyridine-3-carbonitrile] |
| 52 nM | 18 nM | 6 nM | 0.00305 min⁻¹ | C=CC(=O)N1C[C@H]2CN(C(=O)N3CCC(n4cc(-c5cc(OC)c6c(C#N)cnn6c5)cn4)CC3)C[C@H]21 [Example 7, 6-(1-(1-((1S,5S)-6-acryloyl-3,6-diazabicyclo[3.2.0]heptane-3-carbonyl)piperidin-4-yl)-1H-pyrazol-4-yl)-4-methoxypyrazolo[1,5-a]pyridine-3-carbonitrile] |
| 33 nM | 10 nM | 2 nM | 0.02052 min⁻¹ | COc1cc(-c2cnn(C3CCN(C(=O)C4CN(C(=O)/C=C/CN(C)C)C4)CC3)c2)cn2ncc(C#N)c12 [Example 143, (E)-6-(1-(1-(1-(4-(dimethylamino)but-2-enoyl)azetidine-3-carbonyl)piperidin-4-yl)-1H-pyrazol-4-yl)-4-methoxypyrazolo [1,5-a]pyridine-3-carbonitrile] |
| 60 nM | 4 nM | 3 nM | 0.01811 min⁻¹ | COc1cc(-c2cnn(C3CCN(C(=O)C4CN(C(=O)/C=C/CN5CCCCC5)C4)CC3)c2)cn2ncc(C#N)c12 [Example 145, (E)-4-methoxy-6-(1-(1-(1-(4-(piperidin-1-yl)but-2-enoyl)azetidine-3-carbonyl)piperidin-4-yl)-1H-pyrazol-4-yl)pyrazolo[1,5-a]pyridine-3-carbonitrile] |

| Structure (SMILES) | IC50 [1] | IC50 [2] | IC50 [3] | FGFR3 Enz kobs [4] |
| --- | --- | --- | --- | --- |
| C=CC(=O)N1CC(C(=O)N2CCC(n3cc(-c4cc(OCC(C)C)c5c(C#N)cnn5c4)cn3)CC2)C1 [Example 128, 6-(1-(1-(1-acryloylazetidine-3-carbonyl)piperidin-4-yl)-1H-pyrazol-4-yl)-4-isobutoxypyrazolo[1,5-a]pyridine-3-carbonitrile] | 38 nM | 7 nM | 5 nM | 0.01702 min⁻¹ |
| C=CC(=O)N1CC(C(=O)N2CCC(n3cc(-c4cc(OC5CCC5)c5c(C#N)cnn5c4)cn3)CC2)C1 [Example 125, 6-(1-(1-(1-acryloylazetidine-3-carbonyl)piperidin-4-yl)-1H-pyrazol-4-yl)-4-cyclobutoxypyrazolo[1,5-a]pyridine-3-carbonitrile] | 13 nM | 4 nM | 3 nM | 0.01842 min⁻¹ |
